Laboratory results taken from PubChem BioAssay AID248 (DTP/NCI, 2004).
Toxic doses and inconclusive results are not listed. Cut-off read from the data, not from the text of the source: active = T/C of 150% or more; inactive = T/C below 125%.

Tested on: L1210 leukemia ip in BDF1 mice, survival T/C
Assay: NCI In Vivo Anticancer Drug Screen. Data for tumor model L1210 Leukemia (intraperitoneal) in B6D2F1 (BDF1) mice
Conditions: endpoint: mean survival time, higher = longer survival
Procedure, shortened: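 Ratio derived from survival: compound-dosed mice over vehicle-dosed mice, all bearing a transplantable tumor.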

[1] = dose: 100.0 mg/kg/injection, schedule: Q01DX009 (ip), vehicle: Klucel (hydroxypropylcellulose) (HPC)
[2] = dose: 200.0 mg/kg/injection, schedule: Q01DX009 (ip), vehicle: Klucel (hydroxypropylcellulose) (HPC)
[3] = dose: 400.0 mg/kg/injection, schedule: Q01DX009 (ip), vehicle: Klucel (hydroxypropylcellulose) (HPC)
[4] = dose: 100.0 mg/kg/injection, schedule: Q04DX003 (ip), vehicle: Klucel (hydroxypropylcellulose) (HPC)
[5] = dose: 200.0 mg/kg/injection, schedule: Q04DX003 (ip), vehicle: Klucel (hydroxypropylcellulose) (HPC)
[6] = dose: 400.0 mg/kg/injection, schedule: Q04DX003 (ip), vehicle: Klucel (hydroxypropylcellulose) (HPC)

Measured: T/C

COc1cc(OC)c(/C=C/c2ccc3ccccc3[n+]2C)c(OC)c1
inactive: dose: 0.5 mg/kg/injection, schedule: Q01DX009 (oral), vehicle: carboxymethylcellulose (CMC) 104 % of control | dose: 1.0 mg/kg/injection, schedule: Q01DX009 (oral), vehicle: carboxymethylcellulose (CMC) 103 % of control | dose: 2.0 mg/kg/injection, schedule: Q01DX009 (oral), vehicle: carboxymethylcellulose (CMC) 111 % of control | dose: 4.0 mg/kg/injection, schedule: Q01DX009 (oral), vehicle: carboxymethylcellulose (CMC) 103 % of control | dose: 8.0 mg/kg/injection, schedule: Q01DX009 (oral), vehicle: carboxymethylcellulose (CMC) 103 % of control | dose: 31.3 micrograms/kg/injection, schedule: Q04DX003 (ip), vehicle: saline 100 % of control | dose: 62.5 micrograms/kg/injection, schedule: Q04DX003 (ip), vehicle: saline 101 % of control | dose: 125.0 micrograms/kg/injection, schedule: Q04DX003 (ip), vehicle: saline 95 % of control

CCOC(=O)c1[nH]c(-c2ccccc2)c(C=O)c1-c1ccccc1
inactive: dose: 100.0 mg/kg/injection, schedule: Q01DX001 (ip), vehicle: Klucel (hydroxypropylcellulose) (HPC) 100 % of control | dose: 200.0 mg/kg/injection, schedule: Q01DX001 (ip), vehicle: Klucel (hydroxypropylcellulose) (HPC) 100 % of control | dose: 400.0 mg/kg/injection, schedule: Q01DX001 (ip), vehicle: Klucel (hydroxypropylcellulose) (HPC) 100 % of control

CC12CCC3C(CCC4CCCCC43C)C1CCC2CO (configuration not stated)
inactive: dose: 100.0 mg/kg/injection, schedule: Q04DX002 (ip), vehicle: DMSO 101 % of control | dose: 200.0 mg/kg/injection, schedule: Q04DX002 (ip), vehicle: DMSO 99 % of control | dose: 400.0 mg/kg/injection, schedule: Q04DX002 (ip), vehicle: DMSO 89 % of control

Cc1ccc2c(c1)N(CCCN(C)C)c1ccccc1S2
inactive: dose: 12.5 mg/kg/injection, schedule: Q04DX003 (ip), vehicle: saline 102 % of control | dose: 25.0 mg/kg/injection, schedule: Q04DX003 (ip), vehicle: saline 116 % of control

CC(C)(Cc1ccccc1)NC(=O)N(CCCl)N=O
inactive: dose: 31.0 mg/kg/injection, schedule: Q01DX001 (ip), vehicle: other 124 % of control | dose: 1000.0 mg/kg/injection, schedule: Q01DX001 (ip), vehicle: other 111 % of control
active: dose: 62.0 mg/kg/injection, schedule: Q01DX001 (ip), vehicle: other 151 % of control | dose: 250.0 mg/kg/injection, schedule: Q01DX001 (ip), vehicle: other 194 % of control | dose: 375.0 mg/kg/injection, schedule: Q01DX001 (ip), vehicle: other 244 % of control | dose: 500.0 mg/kg/injection, schedule: Q01DX001 (ip), vehicle: other 273 % of control | dose: 750.0 mg/kg/injection, schedule: Q01DX001 (ip), vehicle: other 263 % of control

CC(=O)Oc1ccc(C2(c3ccc(OC(C)=O)cc3)C(=O)Nc3ccccc32)cc1
inactive: dose: 100.0 mg/kg/injection, schedule: Q01DX001 (ip), vehicle: saline 91 % of control | [1] 103 % of control | dose: 200.0 mg/kg/injection, schedule: Q01DX001 (ip), vehicle: saline 92 % of control | [2] 97 % of control | dose: 400.0 mg/kg/injection, schedule: Q01DX001 (ip), vehicle: saline 87 % of control | [3] 104 % of control

CCCCCCCC[N+](CC)(CC)CCOC(=O)C(C1CCCC1)C1CCCC1
inactive: dose: 0.25 mg/kg/injection, schedule: Q01DX015 (ip), vehicle: saline 91 % of control | dose: 0.5 mg/kg/injection, schedule: Q01DX015 (ip), vehicle: saline 91 % of control | dose: 1.0 mg/kg/injection, schedule: Q01DX015 (ip), vehicle: saline 88 % of control | dose: 1.25 mg/kg/injection, schedule: Q01DX009 (ip), vehicle: saline 95 % of control | dose: 2.0 mg/kg/injection, schedule: Q01DX015 (ip), vehicle: saline 86 % of control | dose: 2.5 mg/kg/injection, schedule: Q01DX009 (ip), vehicle: saline 102 % of control | dose: 2.5 mg/kg/injection, schedule: Q04DX003 (ip), vehicle: saline 94 % of control | dose: 5.0 mg/kg/injection, schedule: Q04DX003 (ip), vehicle: saline 94 % of control

Cc1ccc(NC(=O)N2CC2(C)C)cc1NC(=O)N1CC1(C)C
inactive: [4] 121 % of control | [5] 116 % of control | dose: 265.0 mg/kg/injection, schedule: Q04DX003 (ip), vehicle: Klucel (hydroxypropylcellulose) (HPC) 120 % of control | [6] 111 % of control | dose: 600.0 mg/kg/injection, schedule: Q04DX003 (ip), vehicle: Klucel (hydroxypropylcellulose) (HPC) 94 % of control

O=C(O)c1c(Br)c(Br)c(Br)c(Br)c1C(=O)Nc1cccc(C(F)(F)F)c1
inactive: [1] 107 % of control | [2] 108 % of control | [3] 107 % of control

NCCCCC(N)C(=O)CCl (configuration not stated)
inactive: dose: 25.0 mg/kg/injection, schedule: Q04DX002 (ip), vehicle: saline 110 % of control | dose: 50.0 mg/kg/injection, schedule: Q04DX002 (ip), vehicle: saline 97 % of control | dose: 100.0 mg/kg/injection, schedule: Q04DX002 (ip), vehicle: saline 94 % of control

Cc1ccc(S(=O)(=O)OC2C(O)OCC3OC(C)(C)OC32)cc1 (configuration not stated)
inactive: dose: 100.0 mg/kg/injection, schedule: Q01DX009 (ip), vehicle: saline with Tween-80 95 % of control | dose: 200.0 mg/kg/injection, schedule: Q01DX009 (ip), vehicle: saline with Tween-80 88 % of control | dose: 400.0 mg/kg/injection, schedule: Q01DX009 (ip), vehicle: saline with Tween-80 88 % of control

COC(=O)C(C)C(=O)OC
inactive: dose: 100.0 mg/kg/injection, schedule: Q01DX009 (ip), vehicle: acetone 93 % of control | dose: 100.0 mg/kg/injection, schedule: Q04DX003 (ip), vehicle: acetone 107 % of control | dose: 200.0 mg/kg/injection, schedule: Q01DX009 (ip), vehicle: acetone 97 % of control | dose: 200.0 mg/kg/injection, schedule: Q04DX003 (ip), vehicle: acetone 97 % of control | dose: 400.0 mg/kg/injection, schedule: Q01DX009 (ip), vehicle: acetone 93 % of control | dose: 400.0 mg/kg/injection, schedule: Q04DX003 (ip), vehicle: acetone 94 % of control

COc1cc(-c2nc3c4ccccc4c4ccccc4c3[nH]2)cc(OC)c1OC
inactive: [4] 94 % of control | [5] 96 % of control | [6] 105 % of control

Cc1cc2cccc[n+]2cc1C
inactive: dose: 12.5 mg/kg/injection, schedule: Q01DX009 (ip), vehicle: saline 95 % of control | dose: 25.0 mg/kg/injection, schedule: Q01DX009 (ip), vehicle: saline 98 % of control

CNCCc1ccc2cc(OC)c(OC)cc2c1
inactive: dose: 100.0 mg/kg/injection, schedule: Q04DX003 (ip), vehicle: saline with Tween-80 91 % of control

O=C(Nc1ccc(NC(=O)c2ccc(C3=NCCCN3)cc2)cc1)Nc1ccc(C2=NCCCN2)cc1
inactive: dose: 0.62 mg/kg/injection, schedule: Q01DX Z (ip), vehicle: carboxymethylcellulose (CMC) 103 % of control | dose: 1.25 mg/kg/injection, schedule: Q01DX Z (ip), vehicle: carboxymethylcellulose (CMC) 110 % of control | dose: 2.5 mg/kg/injection, schedule: Q01DX Z (ip), vehicle: carboxymethylcellulose (CMC) 105 % of control | dose: 21.0 mg/kg/injection, schedule: Q01DX Z (ip), vehicle: carboxymethylcellulose (CMC) 113 % of control | dose: 62.0 mg/kg/injection, schedule: Q01DX Z (oral), vehicle: carboxymethylcellulose (CMC) 91 % of control | dose: 125.0 mg/kg/injection, schedule: Q01DX Z (oral), vehicle: carboxymethylcellulose (CMC) 102 % of control | dose: 250.0 mg/kg/injection, schedule: Q01DX Z (oral), vehicle: carboxymethylcellulose (CMC) 98 % of control | dose: 500.0 mg/kg/injection, schedule: Q01DX Z (oral), vehicle: carboxymethylcellulose (CMC) 100 % of control
active: dose: 5.0 mg/kg/injection, schedule: Q01DX Z (ip), vehicle: carboxymethylcellulose (CMC) 174 % of control | dose: 6.0 mg/kg/injection, schedule: Q01DX Z (ip), vehicle: carboxymethylcellulose (CMC) 153 % of control | dose: 8.0 mg/kg/injection, schedule: Q01DX Z (ip), vehicle: carboxymethylcellulose (CMC) 185 % of control

O=S(=O)(Cc1cccc(Cl)c1)c1ccccc1
inactive: dose: 100.0 mg/kg/injection, schedule: Q04DX002 (ip), vehicle: Klucel (hydroxypropylcellulose) (HPC) 96 % of control | dose: 200.0 mg/kg/injection, schedule: Q04DX002 (ip), vehicle: Klucel (hydroxypropylcellulose) (HPC) 107 % of control | dose: 400.0 mg/kg/injection, schedule: Q04DX002 (ip), vehicle: Klucel (hydroxypropylcellulose) (HPC) 104 % of control
